Data on 15 molecules can be found in US20060100431A1, “Biologically active compounds” (Amura Therapeutics Limited, priority 2002, published 2006).

Each structure is given as a SMILES string. Some results are limits rather than exact numbers.

Format in all cases: biochemical
Assay [1] addresses T1, CPB2.8ΔCTE (Leishmania mexicana, UniProt P36400).
T1 construct: Wild-type recombinant CPB without the C-terminal extention (i.e. CPB2.8ΔCTE); Dr. Jeremy Mottram (Wellcome Centre for Molecular Parasitology, University of Glasgow)
The experiment in a line: Leishmania mexicana cysteine protease B (CPB) peptidase activity assay (Ki). The following applies: Ki, inhibitors of Leismania mexicana CPB protease. Put shortly: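 Apparent Ki was derived by regression of activity against inhibitor concentration, assuming pure-competitive reversible binding. Reaction: 0.25 nM CPB lacking the C-terminal extension, pH 5.5 acetate buffer (1 mM EDTA, 200 mM NaCl, 10 mM DTT), 25 °C, followed by continuous substrate fluorescence.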

Assay [2] concerns the target T2, human cathepsin L (Homo sapiens, UniProt P07711).
T2 construct: purchased CN Biosciences
The experiment in a line: Cathepsin L peptidase activity assay (Ki). Conditions: read-out: Ki, inhibitors of cathepsin L. Here is the method: Unless otherwise stated, all general chemicals and biochemicals were purchased from either the Sigma Chemical Company, Poole, Dorset, U.K or from Fisher Scientific UK, Loughborough, Leicestershire, U.K. Absorbance assays were carried out in flat-bottomed 96-well plates (Spectra; Greiner Bio-One Ltd., Stonehouse, Gloucestershire, U.K.) using a SpectraMax PLUS384 plate reader (Molecular Devices, Crawley, U.K.). Fluorescence high throughput assays were carried out in either 384-well microtitre plates (Corning Costar 3705 plates, Fisher Scientific) or 96-well ‘U’ bottomed Microfluor W1 microtitre plates (Thermo Labsystems, Ashford, Middlesex, U.K.). Fluorescence assays were monitored using a SpectraMax Gemini fluorescence plate reader (Molecular Devices). For substrates employing either a 7-amino-4-methylcoumarin (AMC) or a 7-amino-4-trifluoromethylcoumarin (AFC) fluorophore, assays were monitored at an excitation wavelength of 365 nm and an emission wavelength of 450 nm and the fluorescence plate reader calibrated with AMC. For substrates employing a 3-amino-benzoyl (Abz) fluorophore, assays were monitored at an excitation wavelength of 310 nm and an emission wavelength of 445 nm; the fluorescence plate reader calibrated with 3-amino-benzamide (Fluka). Unless otherwise indicated, all the peptidase substrates were purchased from Bachem UK, St Helens, Merseyside, UK. Substrates utilizing fluorescence resonance energy transfer methodology (i.e. FRET-based substrates) were synthesized at Incenta Limited using published methods (Atherton & Sheppard, Solid Phase Peptide Synthesis, IRL Press, Oxford, U.K, 1989) and employed Abz (2-aminobenzoyl) as the fluorescence donor and 3-nitro-tyrosine [Tyr(NO2)] as the fluorescence quencher (Meldal, M. and Breddam, K., Anal. Biochem, 195, 141-147, 1991). Hydroxyethylpiperazine ethanesulfonate (HEPES), tris-hydroxylmethyl aminomethane (tris) base, bis-tris-propane and all the biological detergents (e.g. CHAPS, zwittergents, etc.) were purchased from CN Biosciences UK, Beeston, Nottinghamshire, U.K. Glycerol was purchased from Amersham Pharmacia Biotech, Little Chalfont, Buckinghamshire, U.K. Stock solutions of substrate or inhibitor were made up to 10 mM in 100% dimethylsulfoxide (DMSO) (Rathburns, Glasgow, U.K.) and diluted as appropriately required. In all cases the DMSO concentration in the assays was maintained at less than 1% (vol./vol.).
Assay protocols were based on literature precedent (Table 4; Barrett, A. J., Rawlings, N. D. and Woessner, J. F., 1998, Handbook of Proteolytic Enzymes, Academic Press, London and references therein) and modified as required to suit local assay protocols. Enzyme was added as required to initiate the reaction and the activity, as judged by the change in fluorescence upon conversion of substrate to product, was monitored over time. All assays were carried out at 25±1° C.
Bovine cathepsin S, human cathepsin L, human cathepsin H and human cathepsin B were obtained from CN Biosciences. Recombinant human cathepsin S, human cathepsin K and human cathepsin X were obtained from Dr. Boris Turk (Josef Stefan Institute, Ljubljana, Slovenia). Unless otherwise stated, all peptidase activity assays were carried out in 10 mM bis-tris-propane (BTP), pH 6.5 containing 1 mM EDTA, 5 mM 2-mercaptoethanol and 1 mM CaCl2. Human cathepsin H activity assays were carried out in 10 mM BTP pH 6.5, 142 mM NaCl2, 1 mM CaCl2, 1 mM EDTA, 1 mM DTT, 0.035 mM Zwittergent 3-16. Human cathepsin K assays were carried out in 100 mM sodium acetate; pH 5.5 containing 20 mM L-cysteine and 1 mM EDTA (Bossard, M. J., et. al., J. Biol. Chem., 21, 12517-12524, 1996). Human cathepsin X assays were carried out in 100 mM sodium acetate; pH 5.5 containing 20 mM L-cysteine; 0.05% (w/v) Brij 35 and 1 mM EDTA (Santamaria, I., et. al., J. Biol. Chem., 273, 16816-16823, 1998; Klemencic, J, et al., Eur. J. Biochem., 267, 5404-5412, 2000). […]

For assay [3], the target named is Wild-type cruzipain (Trypanosoma cruzi, UniProt P25779). The experiment in a line: Trypanosoma cruzi cruzipain peptidase activity assay (Ki). The following applies: read-out: Ki, inhibitors of cruzain and cruzipains. Put shortly: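 Native cruzipain from T. cruzi Dm28 epimastigotes, 2.5 nM, in 100 mM sodium phosphate pH 6.75 with 1 mM EDTA and 10 mM L-cysteine, 25 °C, DMSO <1%. Rates taken from continuous fluorogenic substrate read; Ki by regression assuming reversible pure-competitive inhibition.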
Sequence of Wild-type cruzipain (P25779 whole entry): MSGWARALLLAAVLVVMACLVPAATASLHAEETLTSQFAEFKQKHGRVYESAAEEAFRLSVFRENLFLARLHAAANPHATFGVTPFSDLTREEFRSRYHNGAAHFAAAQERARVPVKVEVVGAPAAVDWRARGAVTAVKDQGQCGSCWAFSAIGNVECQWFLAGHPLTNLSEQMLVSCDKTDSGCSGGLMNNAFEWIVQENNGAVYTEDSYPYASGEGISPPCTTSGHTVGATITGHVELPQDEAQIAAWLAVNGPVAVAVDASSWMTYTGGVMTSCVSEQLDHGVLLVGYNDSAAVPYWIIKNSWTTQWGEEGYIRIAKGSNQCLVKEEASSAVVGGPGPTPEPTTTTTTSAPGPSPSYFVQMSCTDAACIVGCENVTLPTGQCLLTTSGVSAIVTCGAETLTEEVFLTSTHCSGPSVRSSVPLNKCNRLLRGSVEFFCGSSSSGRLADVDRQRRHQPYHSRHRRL

T1 sequence (P36400 126-343, stated change not applied): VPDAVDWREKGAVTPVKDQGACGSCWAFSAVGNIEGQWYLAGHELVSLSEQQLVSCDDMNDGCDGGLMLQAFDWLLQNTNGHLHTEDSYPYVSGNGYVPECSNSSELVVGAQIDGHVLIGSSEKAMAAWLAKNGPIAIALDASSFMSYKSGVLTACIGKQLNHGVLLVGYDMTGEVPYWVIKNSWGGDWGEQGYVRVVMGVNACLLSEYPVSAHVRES
T2 sequence (P07711 114-333): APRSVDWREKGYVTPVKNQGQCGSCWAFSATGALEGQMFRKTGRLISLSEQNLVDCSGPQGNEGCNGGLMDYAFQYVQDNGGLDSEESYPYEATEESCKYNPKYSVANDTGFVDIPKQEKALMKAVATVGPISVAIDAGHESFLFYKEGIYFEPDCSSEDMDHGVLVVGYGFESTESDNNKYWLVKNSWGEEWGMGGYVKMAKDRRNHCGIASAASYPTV

Consider `CC(C)C[C@H](NC(=O)c1ccc(N(C)C)cc1)C(=O)N1CC[C@@H]2[C@H]1C(=O)CN2C(=O)c1cccc(F)c1` [Example 63, (3aR,6aS)-4-Dimethylamino-N-{(1S)-1-[4-(3-fluoro-benzoyl)-6-oxo-hexahydro-pyrrolo[3,2-b]pyrrole-1-carbonyl]-3-methyl-butyl}-benzamide], for which the Ki in assay [1], in assay [2] and in assay [3] was less than 5 µM each time.

In the case of `CC(C)C[C@H](NC(=O)c1ccc(N(C)C)cc1)C(=O)N1CC[C@@H]2[C@H]1C(=O)CN2C(=O)c1cccc(C(F)(F)F)c1` [Example 68, (3aR,6aS)-4-Dimethylamino-N-{(1S)-3-methyl-1-[6-oxo-4-(3-trifluoromethyl-benzoyl)-hexahydro-pyrrolo[3,2-b]pyrrole-1-carbonyl]-butyl}-benzamide], the Ki in assay [1], in assay [2] and in assay [3] was less than 5 µM each time.

With `Cc1cc(C)cc(C(=O)N2CC(=O)[C@@H]3[C@H]2CCN3C(=O)[C@H](CC(C)C)NC(=O)c2ccc(N(C)C)cc2)c1` [Example 111, (3aR,6aS)-4-Dimethylamino-N-{(1S)-1-[4-(3,5-dimethyl-benzoyl)-6-oxo-hexahydro-pyrrolo[3,2-b]pyrrole-1-carbonyl]-3-methyl-butyl}-benzamide], the Ki in assay [1], in assay [2] and in assay [3] was less than 5 µM throughout.

On to `CC(C)C[C@H](NC(=O)c1ccc([N+](C)(C)[O-])cc1)C(=O)N1CC[C@@H]2[C@H]1C(=O)CN2C(=O)c1ccccc1` [Example 117, (3aR,6aS)-N-[(1S)-1-(4-Benzoyl-6-oxo-hexahydro-pyrrolo[3,2-b]pyrrole-1-carbonyl)-3-methyl-butyl]-4-(N-oxy-dimethylamino)-benzamide], for which the Ki in assay [1], in assay [2] and in assay [3] was less than 5 µM in each case.

Regarding `CC(C)C[C@H](NC(=O)c1cccc(CN)c1)C(=O)N1CC[C@@H]2[C@H]1C(=O)CN2C(=O)Cc1ccccc1` [Example 118, (3aR,6aS)-3-Aminomethyl-N-[(1S)-3-methyl-1-(6-oxo-4-phenylacetyl-hexahydro-pyrrolo[3,2-b]pyrrole-1-carbonyl)-butyl]-benzamide], the Ki in assay [1], in assay [2] and in assay [3] was less than 5 µM throughout.

On to `CC(C)C[C@H](NC(=O)c1cccc(CN)c1)C(=O)N1CC[C@@H]2[C@H]1C(=O)CN2C(=O)Nc1ccccc1` [Example 175, (3aS,6aR)-4-[(2S)-2-(3-Aminomethyl-benzoylamino)-4-methyl-pentanoyl]-3-oxo-hexahydro-pyrrolo[3,2-b]pyrrole-1-carboxylic acid phenylamide], for which the Ki in assay [1], in assay [2] and in assay [3] was less than 5 µM each time.

As to `CC(C)C[C@H](NC(=O)c1cccc(CN)c1)C(=O)N1CC[C@@H]2[C@H]1C(=O)CN2C(=O)Cc1ccccc1F` [Example 178, (3aR,6aS)-3-Aminomethyl-N-((1S)-1-{4-[2-(2-fluoro-phenyl)-acetyl]-6-oxo-hexahydro-pyrrolo[3,2-b]pyrrole-1-carbonyl}-3-methyl-butyl)-benzamide], the inhibition constant Ki in assay [1] and in assay [2] was less than 5 µM throughout.

For the molecule `CC(C)C[C@H](NC(=O)c1cccc(CN)c1)C(=O)N1CC[C@@H]2[C@H]1C(=O)CN2C(=O)Cc1cccc(F)c1` [Example 179, (3aR,6aS)-3-Aminomethyl-N-((1S)-1-{4-[2-(3-fluoro-phenyl)-acetyl]-6-oxo-hexahydro-pyrrolo[3,2-b]pyrrole-1-carbonyl}-3-methyl-butyl)-benzamide], the Ki in assay [1] and in assay [2] was less than 5 µM each time.

With `CC(C)C[C@H](NC(=O)c1cccc(CN)c1)C(=O)N1CC[C@@H]2[C@H]1C(=O)CN2C(=O)Cc1ccc(F)cc1` [Example 180, (3aR,6aS)-3-Aminomethyl-N-((1S)-1-{4-[2-(4-fluoro-phenyl)-acetyl]-6-oxo-hexahydro-pyrrolo[3,2-b]pyrrole-1-carbonyl}-3-methyl-butyl)-benzamide], the Ki in assay [1], in assay [2] and in assay [3] was less than 5 µM in each case.

Take `CC(C)C[C@H](NC(=O)c1cccc(CN)c1)C(=O)N1CC[C@@H]2[C@H]1C(=O)CN2C(=O)[C@H](N)c1ccccc1` [Example 181, (3aR,6aS)-3-Aminomethyl-N-{(1S)-1-[4-((2R)-2-amino-2-phenyl-acetyl)-6-oxo-hexahydro-pyrrolo[3,2-b]pyrrole-1-carbonyl]-3-methyl-butyl}-benzamide]: the Ki in assay [1] and in assay [2] was less than 5 µM throughout.

Turning to `CC(C)C[C@H](NC(=O)c1cccc(CN)c1)C(=O)N1CC[C@@H]2[C@H]1C(=O)CN2C(=O)[C@@H](N)c1ccccc1` [Example 182, (3aR,6aS)-3-Aminomethyl-N-{(1S)-1-[4-((2S)-2-amino-2-phenyl-acetyl)-6-oxo-hexahydro-pyrrolo[3,2-b]pyrrole-1-carbonyl)-3-methyl-butyl}-benzamide], the inhibition constant (Ki) in assay [1] and in assay [2] was less than 5 µM each time.

As for `CC[C@H](NC(C)=O)C(=O)N1CC(=O)[C@@H]2[C@H]1CCN2C(=O)[C@H](CC(C)C)NC(=O)c1ccc(N(C)C)cc1` [Example 204, (3aR,6aS)-N-{(1S)-1-[4-((2S)-2-Acetylamino-butyryl)-6-oxo-hexahydro-pyrrolo[3,2-b]pyrrole-1-carbonyl]-3-methyl-butyl}-4-dimethylamino-benzamide], the Ki in assay [1], in assay [2] and in assay [3] was less than 5 µM each time.

Consider `CC(=O)N1CCC[C@H]1C(=O)N1CC(=O)[C@@H]2[C@H]1CCN2C(=O)[C@H](CC(C)C)NC(=O)c1ccc(N(C)C)cc1` [Example 216, (3aR,6aS)-N-{(1S)-1-[4-((2S)-1-Acetyl-pyrrolidine-2-carbonyl)-6-oxo-hexahydro-pyrrolo[3,2-b]pyrrole-1-carbonyl]-3-methyl-butyl}-4-dimethylamino-benzamide], for which the Ki in assay [1], in assay [2] and in assay [3] was less than 5 µM each time.

Regarding `NCc1cccc(C(=O)N[C@@H](CSCc2ccccc2)C(=O)N2CC[C@@H]3[C@H]2C(=O)CN3C(=O)c2ccccc2)c1` [Example 278, (3aR,6aS)-3-Aminomethyl-N-[(1R)-2-(4-benzoyl-6-oxo-hexahydro-pyrrolo[3,2-b]pyrrole-1-yl)-1-benzylsulfanylmethyl-2-oxo-ethyl]-benzamide], the Ki in assay [1] and in assay [2] was less than 5 µM each time.

On to `O=C(N[C@@H](CC1CCCCC1)C(=O)N1CC[C@@H]2[C@H]1C(=O)CN2C(=O)c1ccccc1)c1ccco1` [Example 288, (3aR,6aS)-Furan-2-carboxylic acid [(1S)-2-(4-benzoyl-6-oxo-hexahydro-pyrrolo[3,2-b]pyrrole-1-yl)-1-cyclohexylmethyl-2-oxo-ethyl]-amide], for which the inhibitory constant (Ki) in assay [2] and in assay [3] was less than 5 µM in each case.
